Earlier results in US6800435B2, “Insect sodium channels from insecticide-susceptible and insecticide-resistant house flies” (Cornell Research Foundation, Inc., priority 1996, dated 2004).

Tested on: resistant (538ge) house fly strain
Conditions: kdr trait, adult flies, Sawicki 1978

## Clc1ccc(C(c2ccc(Cl)cc2)C(Cl)(Cl)Cl)cc1 [DDT, 1,1-bis-(4-chlorophenyl)-2,2,2-trichloroethane]
  doses required to kill approximately 50% of the treated individuals: approximately 0.5 μg per adult fly
